This assay concerns HIV-1ADA. The assay is described as follows: HIV-1ADA replication in purified monocytes, RT activity in supernatant (FIG. 2). Format: cell-based. The settings on record: Human immunodeficiency virus 1, Monocyte, monocytes without M-CSF. Here is the method: FIGS. 2A-C. The effect of various concentrations of Compound No. 2 on RT activity in the supernatant of HIV-1-infected monocytes. FIG. 2A: Multiplicity of Infection (MOI) 1 ng p24/10^6 monocytes, culture d in presence of M-CSF. FIG. 2B: MOI 8 ng p24/10^6 monocytes, cultured in absence of M-CSF. FIG. 2C: MOI 0.8 ng p24/10^6 monocytes, cultured in absence of M-CSF.
The cultures were treated with none or between 10^−12 and 10^−6 M Compound No. 2 and, simultaneously with the beginning of treatment, the cells were exposed to the monocyte-tropic strain HIV-1ADA at about 0.01 TCID50/cell (1 ng p24/10^6 cells) for 2 hours. Samples were withdrawn at days 3, 6, 10, 14 and 17 after infection and assayed for reverse transcription activity.
FIGS. 2B and 2C show the effects of various concentrations of Compound No. 2 on the production of HIV-1 in monocyte cultures not supplemented with M-CSF. In these studies MOI, as determined by concentration of p24 antigen was; FIG. 2B (8 ng/10^6 cells) and FIG. 2C (0.8 ng/10^6 cells).
Primary human monocytes were obtained from peripheral blood by Ficoll-Hypaque centrifugation and adherence to plastic as described previously. Gartner S. P., et al., 1986, Science 233:215. […]
Virus stock and infection. […] The concentration of HIV-1 was determined by immunoassay of viral p24, concentration; using a conversion factor of 1 ng/200 HIV-1 particles. […]

The values below come from patent US6649797B2, “Compounds and methods of use to treat infectious diseases” (The Picower Institute for Medical Research, priority 1996, dated 2003).

Molecules are shown by their SMILES.

By IC50 is commonly meant the concentration that inhibits the measured activity by half. Low readings indicate greater potency, high ones weaker potency. As to `CC(=O)c1cc(Nc2cc(C)[n+](C)c(N)n2)cc(C(C)=O)c1.[I-]` [Compound No. 2, 2-amino-4-(3,5-diacetylphenyl)amino-1,6-dimethylpyrimidinium iodide], the IC50 was less than 1 nM (MOI 0.8 ng p24/10^6 cells (FIG. 2C)) and approximately 10 nM (MOI 8 ng p24/10^6 cells (FIG. 2B)).
